# Where “and” joins values, the source holds several entries; their conditions need not be identical. Equal entries are not always repeated.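 Following 48 hours of exposure in 96-well plates, responses at five concentrations were used to interpolate endpoints linearly. GI50 is the concentration that inhibits growth by half. Definition used: TGI = concentration required for complete inhibition of growth.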
# What was measured:
# Assay in all cases: DTP human tumour cell line panel, 48 h
# DLD-1 colon = test system: DLD-1 colon
# SNB-78 CNS = test system: SNB-78 CNS
# DMS 114 small cell lung = test system: DMS 114 small cell lung
# M19-MEL melanoma = test system: M19-MEL melanoma
# KM20L2 colon = test system: KM20L2 colon
# XF 498 CNS = test system: XF 498 CNS
# MDA-N = test system: MDA-N
# T-47D breast = test system: T-47D breast
SMILES,TGI (DLD-1 colon) [µM],TGI (SNB-78 CNS) [µM],TGI (DMS 114 small cell lung) [µM],TGI (M19-MEL melanoma),TGI (KM20L2 colon),TGI (XF 498 CNS),other results
COc1cc(Br)c(C=Nc2cccc3ccc(OS(=O)(=O)c4cccc([N+](=O)[O-])c4)cc23)cc1OC,> 100,72.9,> 100,> 100 µM,,,
N.N.N.N.N.N.O=N[O-].[Br-].[Co+3].[Co+3].[OH3+].[OH3+],> 100,> 100,,,,,GI50 (DLD-1 colon): > 100 µM; GI50 (SNB-78 CNS): > 100 µM
Nc1nc(CCC(=O)Nc2cccc(C(F)(F)F)c2)cc(-c2ccc3ccccc3c2)n1,> 100,> 100,> 100,> 100 µM,> 100 µM,> 100 µM,
S=c1nc(-c2cccnc2)[nH][nH]1,> 100,> 100,> 100,,> 100 µM,> 100 µM,
O=C(OC[C@H]1O[C@@H](OC(=O)c2cc(O)c(O)c(O)c2)[C@H](OC(=O)c2cc(O)c(O)c(O)c2)[C@@H](OC(=O)c2cc(O)c(O)c(O)c2)[C@@H]1OC(=O)c1cc(O)c(O)c(O)c1)c1cc(O)c(O)c(O)c1,22.5,80.3,15.9,83.2 µM,> 100 µM,22.5 µM,
COC(=O)C1=C(CS(=O)c2ccccc2[N+](=O)[O-])ON(C)C1c1ccccc1 (stereo not drawn),> 100,> 100,65.5,> 100 µM,85.1 µM,86.2 µM,
O=c1ccc(=O)c2c(=O)c3ccccc3c(=O)c1=2,> 100,> 100,95.1,36.8 µM,,> 100 µM,
CC(=O)OC1[C@H]2c3cc4c(cc3CN3CCC(=C[C@@H]1O)C23)OCO4 (stereo partly drawn),> 100,> 100,,> 100 µM,> 100 µM,,
C=C1C(=O)OC2/C=C(\C=O)CC/C=C(\C)C(O)C[C@@H]12 (stereo partly drawn),8.93,18.8,26.6,19.2 µM,22.4 µM,16.1 µM,
C[N+]1(C)C/C(=C\c2ccncc2)C(=O)/C(=C/c2ccncc2)C1,> 100,> 100,> 100,> 100 µM,> 100 µM,,
CC1(C)C2CCC3(C2)CS(=O)(=O)N2OC231 (stereo not drawn),47.5,47.2,26.8,29.8 µM,30.6 µM,,
O=[N+]([O-])c1nccn1COCCBr,> 100,,> 100,> 100 µM,> 100 µM,> 100 µM,
Cc1cc2c(=O)c3ccccc3[nH]c2c(C(=O)O)c1C,> 100,> 100,> 100,> 100 µM,> 100 µM,> 100 µM,
O=C1NC2(CN3CCC2CC3)C(=O)N1CN(Cc1ccccc1)c1ccccc1 (stereo not drawn),,,,,,,TGI (MDA-N): > 100 µM; TGI (T-47D breast): > 100 µM
C[C-](O)O.O/C(=C\[C-](O)c1ccccc1)c1ccccc1.O/C(=C\[C-](O)c1ccccc1)c1ccccc1.[Nd+3] (stereo not drawn),44.2,,57,42.7 µM,21 µM,36.2 µM,GI50 (DLD-1 colon): 9.17 µM; GI50 (KM20L2 colon): 5.76 µM; GI50 (DMS 114 small cell lung): 17.9 µM; GI50 (XF 498 CNS): 13.8 µM; GI50 (M19-MEL melanoma): 12.2 µM
C=C(C=O)CCCC(C)[C@@H]1CCC23CC12CCC1[C@@]2(C)CCC(OC(C)=O)C(C)(C)C2CC(OC2OC(COC(C)=O)C(O)C(O)C2O)[C@]13C (stereo partly drawn),,3.4,,,12.8 µM,,
CCN1CSC(=S)N(CC)C1,,,,,,,TGI (MDA-N): > 100 µM; TGI (T-47D breast): > 100 µM
Cc1cc(=O)oc2cc(O)c(CN(C)CC(=O)O)cc12,,,,,,,TGI (MDA-N): > 100 µM; TGI (T-47D breast): > 100 µM
Cc1c(Cl)cccc1NC(=O)CC1C(=O)Nc2ccccc2S1(=O)=O (stereo not drawn),30.4,45.5,44.9,55.3 µM,44.9 µM,30 µM,
O=C([CH-]C(=O)C(F)(F)F)c1ccccc1.O=C([CH-]C(=O)C(F)(F)F)c1ccccc1.O=C([CH-]C(=O)C(F)(F)F)c1ccccc1.O=C([CH-]C(=O)C(F)(F)F)c1ccccc1.[Eu+3].c1ccncc1,> 100,,,62.8 µM,> 100 µM,,GI50 (DLD-1 colon): 7.12 µM; GI50 (KM20L2 colon): 26.7 µM; GI50 (M19-MEL melanoma): 10 µM
COC(=O)c1c(-c2ccccc2)sc(-c2cccc3ccccc23)c1C(=O)OC,> 100,> 100,,> 100 µM,> 100 µM,,
CN=C1SC(=Nc2ccc(N(C)C)cc2)N1C,> 100,> 100,60.3,> 100 µM,,,
Nc1ccc(S(=O)(=O)NCc2nccs2)cc1,,,,,,,TGI (MDA-N): 54.1 µM; TGI (T-47D breast): 71.8 µM
CC(=O)O[C@@H]1C2C(=O)OC(=O)C2C2CCC[C@]23O[C@H]13 (stereo partly drawn),> 100,> 100,> 100,> 100 µM,> 100 µM,,
CC[C@@]1(O)C(=O)OCc2c1cc1n(c2=O)Cc2cc3cc(N)ccc3nc2-1,> 100,,,0.289 µM and 0.222 µM,0.854 µM and 0.547 µM,1.39 µM and 0.864 µM,GI50 (DLD-1 colon): 0.0885 µM and 0.346 µM; GI50 (SNB-78 CNS): 0.0463 µM and 0.212 µM; GI50 (MDA-N): 0.227 µM; TGI (MDA-N): 1.4 µM and 0.27 µM; GI50 (KM20L2 colon): 0.0314 µM and 0.0373 µM; GI50 (XF 498 CNS): 0.149 µM and 0.138 µM; GI50 (T-47D breast): 0.0476 µM

# Reference: PubChem BioAssay (NCI)
